The text below walks through data of ChEMBL document CHEMBL1154784, “Discovery of potential ZAP-70 kinase inhibitors: pharmacophore design, database screening and docking studies” (Eur J Med Chem, 2009).

The assay deals with T1, Tyrosine-protein kinase ZAP-70 (Homo sapiens, UniProt P43403).
T1 sequence (P43403 whole entry): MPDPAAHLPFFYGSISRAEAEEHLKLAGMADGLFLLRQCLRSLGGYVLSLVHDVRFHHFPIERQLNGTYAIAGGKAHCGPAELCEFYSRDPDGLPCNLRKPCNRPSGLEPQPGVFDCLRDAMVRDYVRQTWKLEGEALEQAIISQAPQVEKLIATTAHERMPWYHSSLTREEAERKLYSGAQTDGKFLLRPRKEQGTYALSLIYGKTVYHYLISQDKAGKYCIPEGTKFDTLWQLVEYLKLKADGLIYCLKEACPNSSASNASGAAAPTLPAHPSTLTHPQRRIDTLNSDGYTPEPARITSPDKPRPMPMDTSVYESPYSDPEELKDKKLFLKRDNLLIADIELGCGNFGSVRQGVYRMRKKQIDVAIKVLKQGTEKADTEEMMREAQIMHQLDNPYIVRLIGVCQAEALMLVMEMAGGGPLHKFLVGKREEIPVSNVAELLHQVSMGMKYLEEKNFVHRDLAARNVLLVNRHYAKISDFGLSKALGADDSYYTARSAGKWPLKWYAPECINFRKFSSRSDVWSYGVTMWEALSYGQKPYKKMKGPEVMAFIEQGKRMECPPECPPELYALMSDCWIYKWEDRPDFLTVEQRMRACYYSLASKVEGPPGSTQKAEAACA
The assay is described as follows: Inhibition of human GST-fused ZAP-70 expressed in Sf9 cells.

The molecule `Cc1[nH]c(/C=C2\C(=O)Nc3ccccc32)c(C)c1CCC(=O)O` [ORANTINIB] registered a half-inhibitory concentration (IC50) of 28.4 µM.
In the case of `Cc1c(CCC(=O)O)c[nH]c1/C=C1\C(=O)Nc2ccccc21` it was 25 µM.
